Earlier results in patent publication US20210353513A1, “STABILIZED OIL-IN-WATER EMULSION” (priority 2018, published 2021).

CCCCCCCCCC(=O)OCC(COC(=O)CCCCCCCCC)OC(=O)CCCCCCCCC [Tricaprin (s, β), Tricaprin]
Density (g/cm^3) at 20° C.: 1.05 g/mL
